# Results: patent US7067113B2, “Methods for identifying compounds for regulating muscle mass or function using dopamine receptors” (The Procter & Gamble Company, priority 2002, dated 2006)
# How the values were obtained:
# [1] = tested on: casting-induced (disuse) atrophy in mice; assay: leg casting disuse atrophy model; type: in vivo, mouse; conditions: male mice
# Method: Legend: A—physiological saline (control); B—SKF 81297 (0.3 mg/kg)+theophylline; C—SKF 81297 (1.0 mg/kg)+theophylline; D—SKF 81297 (3.0 mg/kg)+theophylline; *−p≦0.05 compared to saline. Following casting of the right hind leg, male mice were injected subcutaneously in the midscapular region twice daily, with SKF 81297 or vehicle control (physiological saline) for ten days at the daily delivered dose indicated. SKF 81297 was co-administered with twice daily intra-peritoneal dosing of the phosphodiesterase inhibitor theophylline (30 mg/kg). On day ten, the tibialis anterior muscle was removed and weighed to determine the degree of atrophy.
# Legend: A—physiological saline (control); B—fenoldopam (0.3 mg/kg); C—fenoldopam (1.0 mg/kg); D—fenoldopam (3.0 mg/kg); *−p≦0.05 compared to saline. Following casting of the right hind leg, male mice were injected subcutaneously in the midscapular region twice daily, with fenoldopam or vehicle control (physiological saline) for ten days at the daily delivered dose indicated. On day ten, the medial gastrocnemius muscle was removed and weighed to determine the degree of atrophy.
# The leg casting disuse atrophy model involves casting one hind leg of an animal from the knee down through the foot. Typically, muscle mass is reduced 20–40% after ten days of casting. Following casting, test compounds are administered by injection or by continuous infusion via implantation of an osmotic minipump (e.g., Alzet, Palo Alto, Calif.) to determine their effect on leg casting induced skeletal muscle atrophy. At various times following leg casting, the extent of atrophy in the affected muscles is analyzed as described above for the denervation model.
# [2] = tested on: mouse sciatic nerve denervation atrophy model; assay: mouse sciatic nerve denervation atrophy model; type: in vivo; conditions: male mice
# Method: Legend: A—physiological saline (control); B—SKF 81297 (0.3 mg/kg)+theophylline; C—SKF 81297 (1.0 mg/kg)+theophylline; D—SKF 81297 (3.0 mg/kg)+theophylline. *−p≦0.05 compared to saline. Following denervation of the right sciatic nerve, male mice were injected subcutaneously in the midscapular region twice daily with SKF 81297, at the doses indicated above or vehicle control (physiological saline) for nine days. SKF 81297 was co-administered with twice daily intra-peritoneal dosing of the phosphodiesterase inhibitor theophylline (30 mg/kg). On day nine, the tibialis anterior and medial gastrocnemius muscles were removed and weighed to determine the degree of atrophy.
# The sciatic nerve denervation atrophy model involves anesthetizing the animal followed by the surgical removal of a short segment of either the right or left sciatic nerve, e.g., in mice the sciatic nerve is isolated approximately at the midpoint along the femur and a 3–5 mm segment is removed. This denervates the lower hind limb musculature resulting in atrophy of these muscles. Typically, innervation to the biceps femoris is left intact to provide satisfactory motion of the knee for virtually normal ambulation. Typically, in untreated animals, muscle mass of the denervated muscles is reduced 30–50% ten days following denervation. Following denervation, test compounds are administered e.g., by injection or by continuous infusion, e.g., via implantation of an osmotic minipump (e.g., Alzet, Palo Alto, Calif.), to determine their effect on denervation induced skeletal muscle atrophy. At various times following denervation, the animals are euthanized and lower leg muscles are dissected rapidly from both the denervated and nondenervated legs, the muscles, cleaned of tendons and connective tissue, are weighed. The extent of atrophy in the affected muscles is analyzed, for example, by measuring muscle mass, muscle cross-sectional area, myofiber cross-sectional area or contractile protein content.
Compound,"disuse-induced atrophy of the medial gastrocnemius muscle (muscle weight) ([1]; right hind leg casted, s.c. twice daily for ten days, 0.3, 1.0, 3.0 mg/kg, FIG. 3)","disuse-induced atrophy of the tibialis anterior muscle (muscle weight) ([1]; right hind leg casted, s.c. twice daily for ten days, 0.3, 1.0, 3.0 mg/kg, + theophylline 30 mg/kg i.p. twice daily, FIG. 2)","hypertrophy of the tibialis anterior muscles of the non-casted leg ([1]; s.c. twice daily for ten days, + theophylline 30 mg/kg i.p., FIG. 2)","denervation-induced atrophy of the tibialis anterior muscle (muscle weight) ([2]; s.c. twice daily for nine days, 0.3, 1.0, 3.0 mg/kg, + theophylline 30 mg/kg i.p. twice daily, FIG. 1A)","denervation-induced atrophy of the medial gastrocnemius muscle (muscle weight) ([2]; s.c. twice daily for nine days, 0.3, 1.0, 3.0 mg/kg, + theophylline 30 mg/kg i.p. twice daily, FIG. 1B)","hypertrophy in the normal (non-denervated) tibialis anterior muscle ([2]; s.c. twice daily for nine days, + theophylline 30 mg/kg i.p., FIG. 1A)","hypertrophy in the normal (non-denervated) medial gastrocnemius muscle ([2]; s.c. twice daily for nine days, + theophylline 30 mg/kg i.p., FIG. 1B)"
"Oc1ccc(C2CNCCc3c2cc(O)c(O)c3Cl)cc1 (stereo not shown) [Fenoldopam, 6-chloro-2,3,4,5-tetrahydro-1-(4-hydroxyphenyl)-[1H]-3-benzazepine-7,8-diol]",inhibits,–,–,–,–,–,–
"Oc1cc2c(c(Cl)c1O)CCNCC2c1ccccc1 (stereo not shown) [SKF 81297, 6-chloro-7,8-dihydroxyl-1-phenyl-2,3,4,5-tetrahydro-1H-3-benzazepine]",–,inhibits,statistically significant hypertrophy,inhibits,inhibits,induces hypertrophy,induces hypertrophy
